Structures can show the parent of a compound that is named as a salt. Where two headings read alike, the source gives them in different places. One block for each molecule: values may come before it.
What was measured:
[1] = tested on: DNR-resistant Jurkat cells; test: Chemreversal50: sensitisation of DNR-resistant Jurkat cells to 100 nM DNR; assay type: cell-based, human; conditions: read-out: Chemorev50 (SD), 50% of reversal of chemotherapeutic effect determined in in vitro screen
Experimental: To enable this analysis, a 3-log range of each “hit” compound was added in 2 mL aliquots to a 6 well plate and, over a range of 7 days, total cell number and viability was measured using a hemacytometer and trypan blue staining. Fresh media containing 100 nM DNR was added over the course of the experiment to maintain the cell concentration ≧100,000 cells/mL. […] The differences (if any) between the Chemreversal50 and TD50 gave an approximation of an in vitro “therapeutic index” for each compound.

ABCB1 [2] = target: T1, ABCB1 (Homo sapiens, UniProt P08183); test: JC-1 efflux HyperCyt flow cytometry assay (ABCB1 reversal); conditions: for hit in primary screen of Prestwick Chemical Library for ABCB1-mediated JC-1 efflux: final concentration of 5 μM
T1 sequence (P08183 whole entry): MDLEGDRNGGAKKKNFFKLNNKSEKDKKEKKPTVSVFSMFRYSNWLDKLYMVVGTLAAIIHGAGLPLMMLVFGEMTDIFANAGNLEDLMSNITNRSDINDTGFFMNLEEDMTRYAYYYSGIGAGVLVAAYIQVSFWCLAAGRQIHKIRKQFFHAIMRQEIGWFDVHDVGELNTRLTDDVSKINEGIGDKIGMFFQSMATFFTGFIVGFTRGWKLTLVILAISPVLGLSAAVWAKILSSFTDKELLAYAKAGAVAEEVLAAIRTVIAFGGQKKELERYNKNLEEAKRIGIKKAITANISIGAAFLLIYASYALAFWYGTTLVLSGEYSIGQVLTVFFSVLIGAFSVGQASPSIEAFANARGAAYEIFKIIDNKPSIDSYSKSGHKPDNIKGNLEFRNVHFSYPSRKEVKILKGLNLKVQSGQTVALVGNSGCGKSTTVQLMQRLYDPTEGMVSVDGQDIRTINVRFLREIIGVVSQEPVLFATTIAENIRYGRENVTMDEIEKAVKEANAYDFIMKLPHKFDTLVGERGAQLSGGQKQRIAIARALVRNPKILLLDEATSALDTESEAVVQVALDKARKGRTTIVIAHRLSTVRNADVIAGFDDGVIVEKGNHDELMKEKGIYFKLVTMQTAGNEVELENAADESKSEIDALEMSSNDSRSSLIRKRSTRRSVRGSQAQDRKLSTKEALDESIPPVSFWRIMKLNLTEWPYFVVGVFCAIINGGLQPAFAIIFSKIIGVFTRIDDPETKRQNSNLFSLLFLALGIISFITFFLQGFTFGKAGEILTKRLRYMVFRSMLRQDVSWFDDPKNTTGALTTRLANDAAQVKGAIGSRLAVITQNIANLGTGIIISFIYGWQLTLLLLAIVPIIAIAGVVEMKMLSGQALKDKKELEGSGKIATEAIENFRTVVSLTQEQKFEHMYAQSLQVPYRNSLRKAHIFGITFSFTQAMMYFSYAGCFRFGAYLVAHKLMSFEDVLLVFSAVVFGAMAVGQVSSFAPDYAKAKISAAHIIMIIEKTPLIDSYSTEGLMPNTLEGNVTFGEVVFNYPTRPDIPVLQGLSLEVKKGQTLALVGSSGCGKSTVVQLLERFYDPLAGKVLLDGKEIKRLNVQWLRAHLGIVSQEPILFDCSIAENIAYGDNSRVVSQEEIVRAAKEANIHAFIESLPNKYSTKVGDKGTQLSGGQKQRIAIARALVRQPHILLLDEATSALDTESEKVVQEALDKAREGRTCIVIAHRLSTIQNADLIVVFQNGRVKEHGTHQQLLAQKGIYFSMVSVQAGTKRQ

[3] = tested on: DNR-resistant Jurkat cells; assay type: cell-based; conditions: media alone, 7 days
ABCG2 = target: T2, ABCG2 (Homo sapiens, UniProt Q9UNQ0); test: JC1 duplex high-throughput flow cytometry assay, ABCG2 (IgMXP3 cells); assay type: cell-based; conditions: 384 well plate
T2 construct: ABCG2-expressing IgMXP3 cells; endogenous in cells; host or cells: IgMXP3 cells (resistant subline of Igrov1)
T2 sequence (Q9UNQ0 1-655): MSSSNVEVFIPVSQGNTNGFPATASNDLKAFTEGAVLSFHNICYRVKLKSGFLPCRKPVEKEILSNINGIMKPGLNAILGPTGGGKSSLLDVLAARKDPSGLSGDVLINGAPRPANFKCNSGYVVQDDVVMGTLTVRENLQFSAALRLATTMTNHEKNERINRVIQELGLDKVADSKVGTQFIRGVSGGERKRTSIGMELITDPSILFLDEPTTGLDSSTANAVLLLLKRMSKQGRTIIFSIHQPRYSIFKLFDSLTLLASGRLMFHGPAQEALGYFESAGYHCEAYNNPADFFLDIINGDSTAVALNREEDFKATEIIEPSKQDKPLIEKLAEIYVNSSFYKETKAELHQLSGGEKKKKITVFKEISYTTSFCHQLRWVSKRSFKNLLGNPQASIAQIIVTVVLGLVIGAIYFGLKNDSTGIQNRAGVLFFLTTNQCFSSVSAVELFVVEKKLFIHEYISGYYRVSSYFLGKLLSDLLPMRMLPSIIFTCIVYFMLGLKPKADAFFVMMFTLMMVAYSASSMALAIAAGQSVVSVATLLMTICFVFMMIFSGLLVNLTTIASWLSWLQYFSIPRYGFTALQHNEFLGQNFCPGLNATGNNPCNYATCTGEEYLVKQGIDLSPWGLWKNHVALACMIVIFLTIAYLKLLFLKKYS
Experimental: (§1) Jurkat-DNR cells (ABCB1) were labeled with 0.5 ng/ml FarRed DDAO CellTrace SE (Invitrogen) for 15 min at room temperature, washed twice by centrifugation, then combined with unlabeled IgMXP3 cells (ABCG2) in the assay buffer. The label binds covalently to amine groups in cells and is detected at red fluorescence emission wavelengths of 665±10 nm upon excitation at 635 nm. Final in-well concentration of cells was 3×10^6 cell/ml at a 1:1 ratio of the two cell types.

ABCB1 [4] = target: T1, ABCB1; test: JC1 duplex high-throughput flow cytometry assay, ABCB1 (Jurkat-DNR cells); assay type: cell-based; design: endogenous in cells; host or cells: Jurkat cells selected for daunorubicin resistance (Jurkat-DNR); conditions: 384 well plate
Experimental: as §1

parental Jurkat cells = test: Chemosensitivity of parental (therapy sensitive) Jurkat cells; assay type: cell-based; conditions: Homo sapiens
[5] = tested on: Jurkat DNR resistant cells; test: Chemosensitivity of DNR-resistant Jurkat cells; assay type: cell-based, human; conditions: for IC50: Homo sapiens, Jurkat cells with acquired resistance to DNR
ABCB1 [6] = target: T1, ABCB1; conditions: 5 μM
[7] = Homo sapiens, 168 h, DNR-resistant Jurkat cells, fixed 100 nM DNR, 7 days, trypan blue viability

IC50 (ABCB1 [2]): 7.4 ± 0.95 µM
Molecule: CC(C)COCC(CN(Cc1ccccc1)c1ccccc1)N1CCCC1 (stereo not shown) [Bepridil HCL, bepridil]
EC50 [1, 7]: 3.3 µM

Molecule: Cc1c2ccncc2c(C)c2c1[nH]c1ccccc12 [Ellipticine, ellipticine]
EC50 ([1]; Homo sapiens, Jurkat, 168 h): 1.8 µM
TD50 (SD), 50% toxic dose determined in in vitro screen [3]: 3.8 µM
TD50 (SD), 50% toxic dose determined in in vitro screen ([3]; listed as ellipticine): 2.7 ± 1.56 µM
IC50 (ABCB1 [2]): 0.99 ± 0.014 µM

IC50 (ABCB1 [2]): 4.6 ± 0.28 µM
Molecule: Fc1ccc(C(OCCN2CCN(CCCc3ccccc3)CC2)c2ccc(F)cc2)cc1 [GBR 12909 HCL, GBR 12909]
EC50 [1, 7]: 2.1 µM

Molecule: CC[C@H](c1ccc(O)cc1)[C@@H](CC)c1ccc(O)cc1 [Hexestrol, hexestrol]
EC50 ([1]; Homo sapiens, Jurkat, 168 h): 12.8 µM
IC50 (ABCB1 [2]): 8.3 ± 3.2 µM

Molecule: CC(=O)N1CCN(c2ccc(OCC3COC(Cn4ccnc4)(c4ccc(Cl)cc4Cl)O3)cc2)CC1 (stereo not shown) [Ketoconazole, ketoconazole]
EC50 [1, 7]: 3.7 µM

Molecule: CC[C@@H](C(=O)[C@@H](C)[C@@H](O)[C@H](C)CCc1ccc(C)c(O)c1C(=O)O)[C@H]1O[C@](CC)([C@H]2CC[C@](O)(CC)[C@H](C)O2)C[C@@H]1C [Lasalocid]
JC1 duplex assay response, ABCG2 (ABCG2): significant assay response for both transporters
JC1 duplex assay response, ABCB1 (ABCB1 [4]): significant assay response for both transporters

IC50 (ABCB1 [2]): 5.4 ± 0.55 µM
Molecule: Cc1cccc(C)c1NC(=O)CN1CCN(CCCC(c2ccc(F)cc2)c2ccc(F)cc2)CC1 [Lidoflazine, lidoflazine]
EC50 [1, 7]: 3.1 µM

Molecule: C[C@@H]1C[C@H]2[C@@H]3CCC4=CC(=O)C=C[C@]4(C)[C@@]3(Cl)[C@@H](O)C[C@]2(C)[C@@]1(OC(=O)c1ccco1)C(=O)CCl [Mometasone Furoate, mometasone furoate]
EC50 ([1]; DNR-resistant Jurkat cells, fixed 100 nM DNR, 7 days, trypan blue viability): 1.4 ± 0.28 µM
TD50 (SD), 50% toxic dose determined in in vitro screen [3]: 30.4 µM
TD50 (SD), 50% toxic dose determined in in vitro screen ([3]; listed as mometasone): 24.8 ± 8.0 µM
IC50 (ABCB1 [2]; read-out: IC50 (SD), 50% inhibition of drug efflux determined in high-throughput screen, JC-1 efflux, DNR-resistant Jurkat cells): 0.74 ± 0.13 µM

Molecule: COC(=O)C1=C(C)NC(C)=C(C(=O)OCCN(C)Cc2ccccc2)C1c1cccc([N+](=O)[O-])c1 (stereo not shown) [Nicardipine HCL, nicardipine]
EC50 [1, 7]: 2.6 µM

IC50 [5]: 1 µM
Molecule: C[C@]12C=CC(=O)C=C1CC[C@@H]1[C@@H]2[C@@H](O)C[C@@]2(C)[C@H]1CC[C@]2(O)C(=O)CO [PRED, prednisolone]
IC50 (parental Jurkat cells): 0.316 µM
increased resistance of DNR-resistant vs parental Jurkat cells [5]: 3 fold

Molecule: CCCNCC(O)COc1ccccc1C(=O)CCc1ccccc1 (stereo not shown) [Propafenone HCL, propafenone]
EC50 [1, 7]: 4.9 ± 1.3 µM

IC50 (ABCB1 [2]): 1.53 ± 0.5 µM
Molecule: COC(=O)[C@H]1[C@H]2C[C@@H]3c4[nH]c5cc(OC)ccc5c4CCN3C[C@H]2C[C@@H](OC(=O)/C=C/c2cc(OC)c(OC)c(OC)c2)[C@@H]1OC [Rescinnamine, rescinnamine]
EC50 [1, 7]: 1 µM

IC50 [5]: 316 µM
Molecule: CC[C@]1(O)C[C@H]2CN(CCc3c([nH]c4ccccc34)[C@@](C(=O)OC)(c3cc4c(cc3OC)N(C=O)[C@H]3[C@@](O)(C(=O)OC)[C@H](OC(C)=O)[C@]5(CC)C=CCN6CC[C@]43[C@@H]65)C2)C1 [VCR, Vincristine]
IC50 (parental Jurkat cells): 6.31 µM
increased resistance of DNR-resistant vs parental Jurkat cells [5]: approximately 70 fold

Molecule: CC[C@H](C)[C@H]1O[C@]2(C=C[C@@H]1C)C[C@@H]1C[C@@H](C/C=C(\C)[C@@H](O[C@H]3C[C@H](OC)[C@@H](O[C@H]4C[C@H](OC)[C@@H](O)[C@H](C)O4)[C@H](C)O3)[C@@H](C)/C=C/C=C3\CO[C@@H]4[C@H](O)C(C)=C[C@@H](C(=O)O1)[C@]34O)O2 [avermectin]
hit in primary screen of Prestwick Chemical Library for ABCB1-mediated JC-1 efflux (ABCB1 [2]): inhibiting ABCB1-mediated drug efflux

Molecule: Cc1cc(C2CCCCC2)n(O)c(=O)c1.NCCO [ciclopirox ethanolamine]
hit in primary screen of Prestwick Chemical Library for ABCB1-mediated JC-1 efflux (ABCB1 [2]): inhibiting ABCB1-mediated drug efflux

hit in primary screen of Prestwick Chemical Library for ABCB1-mediated JC-1 efflux (ABCB1 [6]): inhibiting ABCB1-mediated drug efflux
Molecule: CC(=O)O[C@H]1C[C@@]2(C)[C@@H](C[C@@H](O)[C@H]3[C@@]4(C)CC[C@@H](O)[C@@H](C)[C@@H]4CC[C@@]32C)/C1=C(\CCC=C(C)C)C(=O)O [fusidic acid]

Molecule: C=C(C)[C@H]1Cc2c(ccc3c2O[C@@H]2COc4cc(OC)c(OC)cc4[C@@H]2C3=O)O1 [rotenone]
hit in primary screen of Prestwick Chemical Library for ABCB1-mediated JC-1 efflux (ABCB1 [2]): inhibiting ABCB1-mediated drug efflux

hit in primary screen of Prestwick Chemical Library for ABCB1-mediated JC-1 efflux (ABCB1 [6]): inhibiting ABCB1-mediated drug efflux
Molecule: CCOC(=O)Oc1c(OC)cc(C(=O)O[C@@H]2C[C@@H]3CN4CCc5c([nH]c6cc(OC)ccc56)[C@H]4C[C@@H]3[C@H](C(=O)OC)[C@H]2OC)cc1OC [syrosingopine]

Molecule: COc1c(O[C@@H]2O[C@H](CO)[C@@H](O)[C@H](O)[C@H]2O)cc2c(c1OC)-c1ccc(SC)c(=O)cc1[C@@H](NC(C)=O)CC2 [thiocolchicoside]
hit in primary screen of Prestwick Chemical Library for ABCB1-mediated JC-1 efflux (ABCB1 [2]): inhibiting ABCB1-mediated drug efflux

Molecule: L-asparaginase
increased resistance of DNR-resistant vs parental Jurkat cells [5]: no increased resistance

Molecule: antimycin
hit in primary screen of Prestwick Chemical Library for ABCB1-mediated JC-1 efflux (ABCB1 [2]): inhibiting ABCB1-mediated drug efflux

Source: patent US20090208493A1, “Compounds and methods for the selective inhibition of ABCB1, ABCC1 and ABCG2 transporters and the treatment of cancers, especially drug resistant cancers and high throughput flow cytometry assay to detect selective inhibitors” (STC. UNM, priority 2007, published 2009)
